The values below come from ChEMBL document CHEMBL5042493, “Enhancing monoamine oxidase B inhibitory activity via chiral fluorination: Structure-activity relationship, biological evaluation, and molecular docking study” (Eur J Med Chem, 2022).

Data set [1] relates to Mus musculus. Nature of the data set: Neuroprotective activity against MPTP-induced C57BL/6 mouse model of Parkinson's disease assessed as increase in DA level in striatum at 0.625 to 2.5 mg/kg, ip pretreated for 15 mins followed by MPTP challenge and measured after 8 days post MPTP challenge by HPLC electrochemical detection method. In kind it is functional, organism-based. As to conditions: dose 0.625-2.5 mg/kg, time 8.0 day.

For the next data set, the target named is T1, Cytochrome P450 2C8 (Homo sapiens, UniProt P10632).
T1 sequence (P10632 whole entry): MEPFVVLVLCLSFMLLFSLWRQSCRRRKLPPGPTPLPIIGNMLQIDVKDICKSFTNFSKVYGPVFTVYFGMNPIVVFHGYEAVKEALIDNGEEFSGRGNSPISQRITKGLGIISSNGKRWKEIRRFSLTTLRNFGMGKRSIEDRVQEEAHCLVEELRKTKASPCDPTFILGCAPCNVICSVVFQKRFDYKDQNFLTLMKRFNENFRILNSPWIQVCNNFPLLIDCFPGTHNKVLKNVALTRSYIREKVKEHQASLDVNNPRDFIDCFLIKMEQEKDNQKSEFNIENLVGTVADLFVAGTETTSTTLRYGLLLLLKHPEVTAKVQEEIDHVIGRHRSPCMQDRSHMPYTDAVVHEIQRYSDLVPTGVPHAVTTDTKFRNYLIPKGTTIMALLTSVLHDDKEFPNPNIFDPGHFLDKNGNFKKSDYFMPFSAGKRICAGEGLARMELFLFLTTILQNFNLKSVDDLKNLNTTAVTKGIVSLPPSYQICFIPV
Nature of the data set: Inhibition of human CYP2C8 preincubated for 10 min followed by addition of NADPH and measured after 45 min by LC-MS/MS analysis. In kind it is ADME.

Data set [2] is described as follows: Cmax in Cynomolgus monkey at 1 mg/kg, iv measured upto 24 hrs. More on the design: route intravenous, dose 1 mg/kg, time <=24. The class given is ADME, organism-based, Macaca fascicularis. The conditions noted are these: in vivo.
Data set [3] can be described thus: Volume of distribution at steady state in Cynomolgus monkey at 1 mg/kg, iv measured upto 24 hrs. In kind it is ADME, organism-based, Macaca fascicularis. As to conditions: in vivo, read-out: Vdss.
Another data set has as its target Cytochrome P450 2D6 (Homo sapiens, UniProt P10635). The data set is described as follows: Inhibition of human CYP2D6 preincubated for 10 min followed by addition of NADPH and measured after 10 min by LC-MS/MS analysis. The class given is ADME.
A short description of data set [4]: Metabolic stability in human liver microsome assessed as half life at 1 uM measured after 60 min in presence of NADPH by LC-MS/MS analysis. In kind it is ADME. The conditions noted are these: liver microsomes.
Data set [5] in a line: Plasma protein binding in human assessed as unbound fraction at 1 uM measured after 5 hrs by LC-MS/MS analysis. The class given is ADME, cell-free.
For another data set, the target named is T2, Cytochrome P450 1A2 (Homo sapiens, UniProt P05177).
T2 sequence (P05177 whole entry): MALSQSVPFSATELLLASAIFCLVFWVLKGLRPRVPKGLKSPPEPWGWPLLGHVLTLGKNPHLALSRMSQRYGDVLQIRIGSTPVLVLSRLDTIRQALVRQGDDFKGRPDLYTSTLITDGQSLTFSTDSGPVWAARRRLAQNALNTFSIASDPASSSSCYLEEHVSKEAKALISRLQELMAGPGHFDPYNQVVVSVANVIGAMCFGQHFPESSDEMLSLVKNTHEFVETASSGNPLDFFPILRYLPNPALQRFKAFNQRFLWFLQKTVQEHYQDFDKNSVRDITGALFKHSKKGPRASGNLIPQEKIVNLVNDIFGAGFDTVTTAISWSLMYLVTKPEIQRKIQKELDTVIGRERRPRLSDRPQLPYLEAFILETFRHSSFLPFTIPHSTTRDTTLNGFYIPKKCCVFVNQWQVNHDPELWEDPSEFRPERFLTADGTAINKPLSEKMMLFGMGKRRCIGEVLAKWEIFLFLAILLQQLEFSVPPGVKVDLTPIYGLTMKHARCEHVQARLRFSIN
The data set is described as follows: Inhibition of human CYP1A2 preincubated for 10 min followed by addition of NADPH and measured after 10 min by LC-MS/MS analysis. The class given is ADME.

In a further data set the target is T3, Cytochrome P450 2B6 (Homo sapiens, UniProt P20813).
T3 sequence (P20813 whole entry): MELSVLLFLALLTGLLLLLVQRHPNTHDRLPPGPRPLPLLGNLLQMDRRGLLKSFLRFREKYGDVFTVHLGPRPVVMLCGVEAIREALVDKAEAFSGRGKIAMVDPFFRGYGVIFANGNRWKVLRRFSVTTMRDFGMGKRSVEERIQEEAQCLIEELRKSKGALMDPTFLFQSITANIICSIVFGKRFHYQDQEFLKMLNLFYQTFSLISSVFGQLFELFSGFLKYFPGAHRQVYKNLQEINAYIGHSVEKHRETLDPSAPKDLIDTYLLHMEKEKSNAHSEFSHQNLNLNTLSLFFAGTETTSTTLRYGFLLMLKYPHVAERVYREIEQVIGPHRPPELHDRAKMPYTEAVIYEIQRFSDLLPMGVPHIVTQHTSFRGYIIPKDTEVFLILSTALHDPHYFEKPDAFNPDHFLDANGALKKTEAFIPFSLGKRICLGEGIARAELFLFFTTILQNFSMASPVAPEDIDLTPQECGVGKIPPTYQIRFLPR
The data set is described as follows: Inhibition of human CYP2B6 preincubated for 10 min followed by addition of NADPH and measured after 10 min by LC-MS/MS analysis. The class given is ADME.

Data set [6] can be described thus: Metabolic stability in mouse liver microsome assessed as half life at 1 uM measured after 60 min in presence of NADPH by LC-MS/MS analysis. As to conditions: liver microsomes. The class given is ADME. (Liver microsomes are vesicles of endoplasmic reticulum, rich in cytochrome P450 enzymes.)
Data set [7] in a line: Plasma protein binding in mouse assessed as unbound fraction at 1 uM measured after 5 hrs by LC-MS/MS analysis. The class given is ADME, cell-free.
Data set [8] in a line: Oral bioavailability in Sprague dawley rat at 5 mg/kg measured upto 24 hrs. As to conditions: in vivo. In kind it is ADME, organism-based.
In data set [9] the test system is Mus musculus. Nature of the data set: Neuroprotective activity against MPTP-induced C57BL/6 mouse model of Parkinson's disease assessed as increase in DA level in striatum at 1.25 to 5 mg/kg, ip pretreated with MPTP for 4 hrs followed by incubation with compound for five times at 24 hrs interval and measured after 30 mins by HPLC electrochemical detection method in the presence of L-dopa and benserazide. As to conditions: dose 1.25-5 mg/kg, time 24.5 hrs. The class given is functional, organism-based.

Another data set concerns the target Cytochrome P450 2C19 (Homo sapiens, UniProt P33261). Nature of the data set: Inhibition of human CYP2C19 preincubated for 10 min followed by addition of NADPH and measured after 45 min by LC-MS/MS analysis. The class given is ADME.
Data set [10] can be described thus: Cmax in Sprague dawley rat at 1 mg/kg, iv measured upto 24 hrs. In kind it is ADME, organism-based. Details: route intravenous, dose 1 mg/kg, time <=24. The conditions noted are these: in vivo.
A short description of data set [11]: AUC (0-t) in Cynomolgus monkey at 1 mg/kg, iv measured upto 24 hrs. In kind it is ADME, organism-based, Macaca fascicularis. Details: route intravenous, dose 1 mg/kg, time <=24. As to conditions: in vivo.
Data set [12] can be described thus: Clearance in Cynomolgus monkey rat at 1 mg/kg, iv measured upto 24 hrs. The class given is ADME, organism-based, Macaca fascicularis. As to conditions: in vivo.
For another data set, the target named is Cytochrome P450 3A5 (Homo sapiens, UniProt P20815). The data set is described as follows: Inhibition of human CYP3A5 preincubated for 10 min followed by addition of NADPH and measured after 5 min by LC-MS/MS analysis. In kind it is ADME.
Sequence of Cytochrome P450 3A5 (P20815 whole entry): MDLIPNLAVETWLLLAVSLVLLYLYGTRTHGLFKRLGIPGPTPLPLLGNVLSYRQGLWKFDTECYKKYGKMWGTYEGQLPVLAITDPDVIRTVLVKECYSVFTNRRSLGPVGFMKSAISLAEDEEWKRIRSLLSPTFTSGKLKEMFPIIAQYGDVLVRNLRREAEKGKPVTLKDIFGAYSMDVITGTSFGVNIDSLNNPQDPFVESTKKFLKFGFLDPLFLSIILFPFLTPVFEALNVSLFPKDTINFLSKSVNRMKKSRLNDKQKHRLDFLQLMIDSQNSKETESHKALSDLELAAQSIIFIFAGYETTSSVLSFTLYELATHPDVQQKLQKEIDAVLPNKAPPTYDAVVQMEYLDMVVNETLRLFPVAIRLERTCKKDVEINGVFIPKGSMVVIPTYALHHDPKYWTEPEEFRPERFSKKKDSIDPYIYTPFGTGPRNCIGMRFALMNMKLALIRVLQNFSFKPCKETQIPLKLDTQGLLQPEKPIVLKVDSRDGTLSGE
A further data set is filed under the species Homo sapiens. The data set is described as follows: Selectivity index, ratio of IC50 for recombinant human MAO-A expressed in Sf9 cells to IC50 for recombinant human MAO-B expressed in Sf9 cells.
Data set [13] can be described thus: AUC (0-t) in Cynomolgus monkey rat at 5 mg/kg, po measured upto 24 hrs. In kind it is ADME, organism-based, Macaca fascicularis. Details: route oral, dose 5 mg/kg, time <=24. As to conditions: in vivo.
The next data set relates to Salmonella typhimurium. Nature of the data set: Genotoxicity in Salmonella typhimurium by Ames test. The class given is toxicity, organism-based. The conditions noted are these: salmonella enterica subsp. enterica serovar typhimurium. A general note: The Ames test uses bacterial strains that need an amino acid and regain growth without it when mutated back.

SMILES strings stand for the structures. Active and inactive are the calls of the source. The calls are words filed in the database; no cut-off is given here.

Sequence of Cytochrome P450 2D6 (P10635 whole entry): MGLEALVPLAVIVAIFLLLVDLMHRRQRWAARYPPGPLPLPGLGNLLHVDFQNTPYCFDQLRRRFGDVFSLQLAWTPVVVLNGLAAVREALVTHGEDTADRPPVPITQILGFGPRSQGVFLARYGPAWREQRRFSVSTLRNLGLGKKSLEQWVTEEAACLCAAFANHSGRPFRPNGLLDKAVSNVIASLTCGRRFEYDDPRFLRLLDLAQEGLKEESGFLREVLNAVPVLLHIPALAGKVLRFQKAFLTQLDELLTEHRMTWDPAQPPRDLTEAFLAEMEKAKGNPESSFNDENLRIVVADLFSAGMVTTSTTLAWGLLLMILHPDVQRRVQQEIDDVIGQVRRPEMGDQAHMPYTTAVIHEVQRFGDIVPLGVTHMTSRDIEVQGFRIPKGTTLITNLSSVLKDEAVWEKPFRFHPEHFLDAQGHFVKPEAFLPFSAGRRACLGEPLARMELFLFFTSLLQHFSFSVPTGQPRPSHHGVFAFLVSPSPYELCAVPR
Sequence of Cytochrome P450 2C19 (P33261 whole entry): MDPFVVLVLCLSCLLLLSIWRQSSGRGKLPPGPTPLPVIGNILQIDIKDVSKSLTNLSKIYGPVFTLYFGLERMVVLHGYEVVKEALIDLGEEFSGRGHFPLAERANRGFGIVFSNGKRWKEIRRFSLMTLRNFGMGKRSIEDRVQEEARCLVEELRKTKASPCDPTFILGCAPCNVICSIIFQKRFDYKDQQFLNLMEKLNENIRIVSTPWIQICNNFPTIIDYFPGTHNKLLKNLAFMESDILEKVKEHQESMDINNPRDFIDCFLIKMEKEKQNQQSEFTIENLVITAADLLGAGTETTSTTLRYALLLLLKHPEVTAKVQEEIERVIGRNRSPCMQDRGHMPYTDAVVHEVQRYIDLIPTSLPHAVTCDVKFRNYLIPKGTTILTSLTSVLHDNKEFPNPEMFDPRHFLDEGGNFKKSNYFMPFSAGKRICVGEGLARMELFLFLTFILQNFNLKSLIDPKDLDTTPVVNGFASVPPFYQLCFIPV

Regarding `NC(=O)[C@@H]1C[C@H](F)CN1Cc1ccc(OCc2cccc(F)c2)cc1`, the result in the data set on Mus musculus [1] and in the data set on Mus musculus [9] was Active. In addition, the 50% inhibitory concentration (IC50) against Cytochrome P450 2C8, against Cytochrome P450 2D6, on Cytochrome P450 1A2, against Cytochrome P450 2B6, against Cytochrome P450 2C19 and at Cytochrome P450 3A5 was over 29 µM throughout. In addition, the results for the Cmax in data set [2] and in data set [10] were 924 ng/mL and 690 ng/mL, respectively. Moreover, the Vd in data set [3] turned out to be 1.06 L/kg. Moreover, the half-life – broadly, how long it takes for the measured level to halve – at 1 µM in data set [4] amounted to 2.23 h; in data set [6] it was 9.37 min. For the same compound, the fraction unbound (in general, the share of the substance not bound to proteins or other matrix) at 5 h, 1 µM in data set [5] was determined as 0.0363; in data set [7], 0.0516. In data set [8], the bioavailability (usually dose-corrected exposure relative to a reference, in per cent) was determined as 55.2%. Also, the AUC(0-t) (commonly exposure summed from dosing to a finite time, without extrapolation to infinity) at 24 h came out at 2120 ng·h/mL in data set [11] and 11300 ng·h/mL in [13]. In [12], the clearance – broadly, a measure of how efficiently the substance is removed, as volume per time – worked out at 7.54 mL/min/kg. In the data set filed under Homo sapiens, the Ratio IC50 was 2440. Further, the Activity result in the data set on Salmonella typhimurium is on record as “Non-Toxic”.
